In ChEMBL document CHEMBL4330087, “Synthesis, antimicrobial activity, attenuation of aminoglycoside resistance in MRSA, and ribosomal A-site binding of pyrene-neomycin conjugates” (Eur J Med Chem, 2019):

Tested on: Ribosomal RNA A-site
Test: Binding affinity to rRNA-A site in human MDA-MB-231 cells assessed as inhibition of protein translation
Format: cell-based

IC50: 18.1 µM
Compound: CC/C(=C(\c1ccccc1)c1ccc(OCCN(C)C)cc1)c1ccccc1 [TAMOXIFEN]
